Measured values as given in the supplement of paper PMC11451515.

Tests used:
Conditions in all cases: 48 h
SEM cells [1] = assay: cell viability relative to DMSO control; higher = less cytotoxic
How it was run: (§1)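 NOMO1, SEM and P12-Ichikawa leukemia cells spent at least four passages adapting to each medium before use. They were seeded at 500 cells/well (NOMO1, SEM) or 1000 cells/well (P12-Ichikawa) in 5 μl in 1536-well plates and pin-dosed with library compounds in DMSO at 11 threefold steps from 47 μM down to 0.79 nM. After 48 h at 37°C, CellTiter-Glo One luminescence was read. Viability is reported as a percentage of the DMSO wells on each plate, with cell-free wells as background.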

P12-Ichikawa [2] = assay: as above
How it was run: as §1

NOMO1 [3] = assay: as above
How it was run: as §1

SEM cells [4] = assay: AUC of viability dose-response curve (% viability x log10 dose units); higher = less sensitive
How it was run: (§2)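 In 1536-well plates, leukemia cells adapted to each medium (500 or 1000 cells/well) were exposed for 48 h at 37°C to library compounds in DMSO across 11 threefold doses, 47 μM down to 0.79 nM. Viability was read by CellTiter-Glo One luminescence and normalised per plate to DMSO and cell-free wells. A four-parameter log-logistic fit over log10 doses was integrated by trapezoidal rule. This yielded the area under the curve, with over-full-viability curves scaled and quality-control failures dropped.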

P12-Ichikawa [5] = assay: as above
How it was run: as §2

NOMO1 [6] = assay: as above
How it was run: as §2

c1cc(CN2CCCNCCNCCCNCC2)ccc1CN1CCCNCCNCCCNCC1
cell viability [%]
Conditions	NOMO1 [3]	P12-Ichikawa [2]	SEM cells [1]
HPLM + 10% dialyzed FBS, 0.000781 µM	79.6	84	83.6
HPLM + 10% dialyzed FBS, 0.00234 µM	109	90.4	85.7
HPLM + 10% dialyzed FBS, 0.00702 µM	100	96.5	86.8
HPLM + 10% dialyzed FBS, 0.0211 µM	30.5	10.2	20.1
HPLM + 10% dialyzed FBS, 0.0632 µM	117	101	94.3
HPLM + 10% dialyzed FBS, 0.19 µM	108	104	101
HPLM + 10% dialyzed FBS, 0.569 µM	102	109	89.8
HPLM + 10% dialyzed FBS, 1.71 µM	109	102	96.9
HPLM + 10% dialyzed FBS, 5.12 µM	109	102	106
HPLM + 10% dialyzed FBS, 15.4 µM	106	116	116
HPLM + 10% dialyzed FBS, 46.1 µM	104	117	110
RPMI 5 mM glucose + 10% FBS, 0.000781 µM	88.4	80.6	70.8
RPMI 5 mM glucose + 10% FBS, 0.00234 µM	85.8	90.8	93.3
RPMI 5 mM glucose + 10% FBS, 0.00702 µM	97.8	95.2	83.8
RPMI 5 mM glucose + 10% FBS, 0.0211 µM	18.6	12.9	13.6
RPMI 5 mM glucose + 10% FBS, 0.0632 µM	89.2	101	85.7
RPMI 5 mM glucose + 10% FBS, 0.19 µM	105	97.6	92.9
RPMI 5 mM glucose + 10% FBS, 0.569 µM	86.7	101	87.1
RPMI 5 mM glucose + 10% FBS, 1.71 µM	88.4	103	90.8
RPMI 5 mM glucose + 10% FBS, 5.12 µM	85.4	99	94.1
RPMI 5 mM glucose + 10% FBS, 15.4 µM	101	111	91.5
RPMI 5 mM glucose + 10% FBS, 46.1 µM	92.5	106	89
RPMI 5 mM glucose + 10% dialyzed FBS, 0.000781 µM	89.2	86.3	94.1
RPMI 5 mM glucose + 10% dialyzed FBS, 0.00234 µM	78.2	93.9	84.4
RPMI 5 mM glucose + 10% dialyzed FBS, 0.00702 µM	83.5	92.9	94.2
RPMI 5 mM glucose + 10% dialyzed FBS, 0.0211 µM	33	24.9	20
RPMI 5 mM glucose + 10% dialyzed FBS, 0.0632 µM	98.3	94.9	117
RPMI 5 mM glucose + 10% dialyzed FBS, 0.19 µM	93.9	99.6	118
RPMI 5 mM glucose + 10% dialyzed FBS, 0.569 µM	102	101	106
RPMI 5 mM glucose + 10% dialyzed FBS, 1.71 µM	92.7	101	115
RPMI 5 mM glucose + 10% dialyzed FBS, 5.12 µM	91.3	103	102
RPMI 5 mM glucose + 10% dialyzed FBS, 15.4 µM	91.4	96.5	125
RPMI 5 mM glucose + 10% dialyzed FBS, 46.1 µM	93.4	103	119

SEM cells [4]
Conditions	AUC of viability dose-response curve
HPLM + 10% dialyzed FBS	390
RPMI 5 mM glucose + 10% FBS	387
RPMI 5 mM glucose + 10% dialyzed FBS	416

C[C@H]1[C@H](OC(=O)CCC(=O)O)O[C@@H]2O[C@@]3(C)CC[C@H]4[C@H](C)CC[C@@H]1[C@@]24OO3
AUC of viability dose-response curve
Conditions	NOMO1 [6]	P12-Ichikawa [5]	SEM cells [4]
HPLM + 10% dialyzed FBS	350	372	393
RPMI 5 mM glucose + 10% FBS	342	360	371
RPMI 5 mM glucose + 10% dialyzed FBS	335	351	378
